Common to all, as to format: cell-based
Assay [1] has as its system Aβ1-42 production in SweAPP N2A cells (N2A-APPswe). The experiment in a line: Aβ1-42 ELISA of conditioned medium of SweAPP N2A cells.
Method: Neuro-2A cells expressing Swedish mutants of (“SweAPP N2A cells”) was cultured in minimal essential medium with glutamine (2 mM), pyruvate (2 mM) and fetal bovine serum (10%). Cells were seeded at 6-well plate at 1×10^6 cells/mL and grown overnight. The medium was replaced.
Conditioned medium was diluted with 2 part volume of ELISA diluents. Aβ1-42 concentrations were determined by using human Aβ1-42 ultrasensitive ELISA kit (manufactured by Invitrogen).
Cell culture: Neuro-2A cells expressing Swedish mutants of APP (N2A-APPswe) ENREF 12 was cultured in minimal essential medium with 2 mM glutamine, 2 mM pyruvate and 10% fetal bovine serum. Cells were seeded at 6-well plate at 1×10^6 cells/mL and grown for two days until confluence. The medium was replaced and the test compounds were added at indicated concentrations for 24 hr.
Assay [2] concerns SW480, human colon adenocarcinoma cells. As to the kind of experiment: Growth of cancer cell lines: SW480. The note with it: mean ± S.D., n = 3; read-out: IC50 against growth of SW480.
For assay [3], the system named is HepG2, human hepatoma cells. The experiment in a line: Growth of cancer cell lines: HepG2. The note with it: mean ± S.D., n = 3; read-out: IC50 against growth of HepG2.
For assay [4], the system named is HeLa, human cervical carcinoma cells. The experiment in a line: Growth of cancer cell lines: HeLa. The note with it: mean ± S.D., n = 3; read-out: IC50 against growth of HeLa.
The subject of assay [5] is NCI-H460, human non-small lung carcinoma cells. The experiment in a line: Growth of cancer cell lines: NCI-H460. The note with it: mean ± S.D., n = 3; read-out: IC50 against growth of NCI-H460.
Assay [6] concerns Aβ42, Aβ40 and Aβ38 in N2A-APPswe cells. As to the kind of experiment: Aβ42, Aβ40 and Aβ38 profiles in conditioned medium by ELISA. The note with it: FIG. 18, 18 hr. Here is the method: Aβ ELISA: Aβ concentrations in conditioned medium were assayed using ELISA kits for human Aβ40, human Aβ42 (ultrasensitive) (Invitrogen) and Aβ38 (MyBioSource).
Cells were treated with various concentrations of (TAIII/TAI/AA/TAV) and DMSO vehicle (C) for 18 hr. In part A of FIG. 18, the expression of full length (FL) and CTF (c99 and c83) in cell lysates and secreted APP (sAPPα and sAPPP) in the conditioned medium were examined by immunoblot using methods specified in Example 6. In part B of FIG. 18, the profiles of Aβ42, Aβ40 and Aβ38 in the conditioned medium were determined by ELISA using methods specified in Example 5.

A further assay concerns Neuro-2A cells. The experiment in a line: Neurite outgrowth of N2A cells. The note with it: FIG. 19; TAIII 5 μM, TAI 10 μM, SSG 25 μM, 18 hr, type III β-tubulin staining.
For assay [7], the system named is Notch cleavage by γ-secretase in N2A-APPswe cells. The experiment in a line: Notch cleavage by γ-secretase (NotchΔE/NICD immunoblot). The note with it: FIG. 20; at concentrations that effectively lower Aβ levels, 18 hr. How it is done:
Immunoblot analysis: Cells were washed with phosphate buffered saline and lysed with buffer containing 50 mM Tris-Cl, pH 7.4, 150 mM NaCl, 1% Triton X-100 supplemented with protease inhibitors. Equal amount of proteins (30 μg) was resolved by 16.5% Tris-tricine gels and then transferred to nitrocellulose membrane with 0.2 µm pore size. For detection of secreted Aβ, sAPPα and sAPPβ, cells were treated with the timosaponins for 8 hr in complete medium which were then replaced with medium containing 0.1% FBS. After further incubation of 16 hr, 50 μL of the conditioned medium was mixed with SDS sample buffer and resolved accordingly. The membrane was blocked with Tris-buffered saline containing 0.1% TWEEN® 20 and 3% BSA and then incubated with primary antibodies at 4° C. overnight, followed with appropriate secondary antibodies for 2 hr. The primary antibodies were: APP c-terminal rabbit antibody (1:5000; Merck Bioscience) for detection of full length APP and APP-CTFs, mouse monoclonal 6E10 (Covance) for secreted Aβ and sAPPα, mouse monoclonal 6A1 (IBL) for sAPPβswe, ADAM-10 rabbit antibody (Millipore) and BACE1 rabbit antibody (Millipore). The immunoreactivities were detected using enhanced chemiluminescence reagents (GE Health care). […]

[8] abbreviates: Table 4, N2A-APPswe cells, mean ± S.D, n ≥ 3, read-out: IC50 in lowering Aβ42 production.
Setting [9] is: N2a-APPswe, read-out: IC50 in lowering Aβ42 production.
[10] abbreviates: Example 7, SweAPP N2A cells, Aβ1-42 ELISA, read-out: IC50, inhibition of Aβ production.

Where two headings read alike, the source gives them in different places. Bounds are passed on as bounds.

Method for Neuro-2A cells: Immunofluorescence examination of neurite outgrowth: Neuro-2A cells were seeded at 1×10^5 cells per glass bottom dish. After treatment, cells were fixed with 4% paraformaldyde for 10 min, permeabilized with 0.1% Trition X-100, and then blocked with 1% BSA in PBS. The cells were incubated with monoclonal antibody raised against type III β-tubulin (Sigma) for 1 hr followed by Alexa488 conjugated secondary antibody. Neurite morphology was examined under fluorescence microscope.

Take `C[C@@H]1CC[C@@]2(OC1)O[C@H]1C[C@H]3[C@@H]4C[C@H](O)[C@H]5C[C@@H](O)CC[C@]5(C)[C@H]4CC[C@]3(C)[C@H]1[C@@H]2C` [5α-H, 6α-OH diosgenin]: the IC50 in assay [1] (setting [8]) is above 100 µM.
Regarding `C[C@H]1CC[C@@]2(OC1)O[C@H]1C[C@H]3[C@@H]4C[C@H](O)[C@H]5C[C@@H](O)CC[C@]5(C)[C@H]4CC[C@]3(C)[C@H]1[C@@H]2C` [5α-H, 6α-OH yamogenin], in assay [1] (setting [8]), the IC50 is above 100 µM.
The same measure, in the same setting: under `C[C@@H]1CC[C@@]2(OC1)O[C@H]1C[C@H]3[C@@H]4C[C@@H](O)[C@@H]5C[C@@H](O)CC[C@]5(C)[C@H]4CC[C@]3(C)[C@H]1[C@@H]2C` [5β-H, 6β-OH diosgenin] stands above 100 µM; under `C[C@H]1CC[C@@]2(OC1)O[C@H]1C[C@H]3[C@@H]4C[C@@H](O)[C@@H]5C[C@@H](O)CC[C@]5(C)[C@H]4CC[C@]3(C)[C@H]1[C@@H]2C` [5β-H, 6β-OH yamogenin], 45 ± 4 µM.
Turning to `C[C@H]1CC[C@@]2(OC1)O[C@H]1C[C@H]3[C@@H]4CC[C@@H]5C[C@@H](O[C@@H]6O[C@H](CO)[C@@H](O)[C@H](O)[C@H]6O)CC[C@]5(C)[C@H]4CC[C@]3(C)[C@H]1[C@@H]2C` [Asparagoside A], the IC50 in assay [2] was 15.6 ± 1.96 µM; in assay [3], 7.72 ± 2.68 µM; in assay [4], 65.4 ± 20.9 µM; in assay [5] it was 14.1 ± 0.64 µM; in assay [1] (setting [8]), 6 ± 1.4 µM. Also, the “Aβ profile (Aβ42 vs Aβ40 and Aβ38)” value in assay [6] is given as “preferentially lower Aβ42 production”. The Neurite outgrowth result in the assay on Neuro-2A cells was “significant extension and branching of neurites”.
Turning to `C[C@@H]1CC[C@@]2(OC1)O[C@H]1C[C@H]3[C@@H]4CC=C5C[C@@H](O[C@@H]6O[C@H](CO)[C@H](O)[C@H](O)[C@H]6O)CC[C@]5(C)[C@H]4CC[C@]3(C)[C@H]1[C@@H]2C` [Capsicoside A3], in assay [1] (setting [8]), the IC50 was above 100 µM.
Still for that read-out and setting: the value for `CC(CO)CCC1OC2CC3C4CCC5CC(O)CCC5(C)C4CCC3(C)C2C1C` (stereo not shown) [Dihydrosarsasapogenin] was above 100 µM; that for `C[C@@H]1CC[C@@]2(OC1)O[C@H]1C[C@H]3[C@@H]4CC=C5C[C@@H](O)CC[C@]5(C)[C@H]4CC[C@]3(C)[C@H]1[C@@H]2C` [Diosgenin] was above 100 µM; that for `C[C@H]1CC[C@@]2(OC1)O[C@H]1C[C@H]3[C@@H]4CC[C@@H]5C[C@H](O)CC[C@]5(C)[C@H]4CC[C@]3(C)[C@H]1[C@@H]2C` [Episarsasapogenin] was above 100 µM.
Same read-out and setting: the value for `CC(C)[C@@H](C)/C=C/[C@@H](C)[C@H]1CC[C@H]2C3=CC=C4C[C@@H](O)CC[C@]4(C)[C@H]3CC[C@]12C` [Ergosterol, reference compound] was above 100 µM.
Consider `C[C@H]1CC[C@@]2(OC1)O[C@H]1C[C@H]3[C@@H]4CC[C@@H]5C[C@@H](OCC(=O)O)CC[C@]5(C)[C@H]4CC[C@]3(C)[C@H]1[C@@H]2C` [Ethereal SSG], for which the IC50 in assay [1] (setting [9]) is 27 ± 8 µM. In addition, in assay [7], the “Notch processing (NotchΔE and NICD)” value is “did not affect the Notch processing”.
In the case of `C[C@H]1CC[C@@]2(OC1)O[C@H]1C[C@H]3[C@@H]4CC[C@H]5C[C@@H](O)CC[C@]5(C)[C@H]4CC[C@]3(C)[C@H]1[C@@H]2C` [Neotigogenin], the IC50 in assay [1] (setting [9]) was above 100 µM.
Consider `C[C@H]1CC[C@@]2(OC1)O[C@H]1C[C@H]3[C@@H]4CC[C@@H]5C[C@@H](O)CC[C@]5(C)[C@H]4CC[C@]3(C)[C@H]1[C@@H]2C` [Sarsasapogenin], for which the IC50 in assay [2] is 29.4 ± 5.09 µM; in assay [3], 32.6 ± 4.58 µM; in assay [4], 50 ± 2 µM; in assay [5] it was 19.2 ± 0.45 µM; in assay [1] (setting [10]), around 20 µM; in assay [1] (setting [8]), 53 ± 9 µM. Moreover, the “Notch processing (NotchΔE and NICD)” value in assay [7] is on record as “did not affect the Notch processing”. In addition, the Neurite outgrowth result in the assay with Neuro-2A cells is “significant extension and branching of neurites”.
As to `C[C@@H]1CC[C@@]2(OC1)O[C@H]1C[C@H]3[C@@H]4CC[C@@H]5CC(=O)CC[C@]5(C)[C@H]4CC[C@]3(C)[C@H]1[C@@H]2C` [Sarsasapogenone], the IC50 in assay [1] (setting [8]) was 50 ± 5 µM.
Regarding `C[C@@H]1CC[C@@]2(OC1)O[C@H]1C[C@H]3[C@@H]4CC[C@@H]5C[C@@H](O)CC[C@]5(C)[C@H]4CC[C@]3(C)[C@H]1[C@@H]2C` [Smilagenin], the IC50 in assay [1] (setting [9]) is above 100 µM.
Still for that read-out and setting: under `C[C@@H]1CC[C@@]2(OC1)O[C@H]1C[C@H]3[C@@H]4CC[C@H]5C[C@@H](O)CC[C@]5(C)[C@H]4CC[C@]3(C)[C@H]1[C@@H]2C` [Tigogenin] stands above 100 µM.
Consider `C[C@H]1CC[C@@]2(OC1)O[C@H]1C[C@H]3[C@@H]4CC[C@@H]5C[C@@H](O[C@@H]6O[C@H](CO)[C@H](O)[C@H](O)[C@H]6O)CC[C@]5(C)[C@H]4CC[C@]3(C)[C@H]1[C@@H]2C` [Timosaponin AI], for which the IC50 in assay [2] was 12.1 ± 3.83 µM; in assay [3] it was 10.5 ± 4.64 µM; in assay [4], 44.5 ± 1.15 µM; in assay [5] it was 10.2 ± 4.64 µM; in assay [1] (setting [10]) it was around 20 µM; in assay [1] (Example 9, SweAPP N2A cells, Aβ1-42 ELISA, read-out: ICS50, inhibitor of Aβ production), 5 µM. Also, the IC50 in assay [1] (setting [8]) amounted to 6.1 ± 2.8 µM. The “Aβ profile (Aβ42 vs Aβ40 and Aβ38)” value in assay [6] is “preferentially lower Aβ42 production”. For the same compound, the Neurite outgrowth entry with Neuro-2A cells is “significant extension and branching of neurites”.
Consider `C[C@H]1CC[C@@]2(OC1)O[C@H]1C[C@H]3[C@@H]4CC[C@@H]5C[C@@H](O[C@@H]6O[C@H](CO)[C@H](O[C@@H]7O[C@H](CO)[C@@H](O)[C@H](O)[C@H]7O)[C@H](O)[C@H]6O[C@@H]6O[C@H](CO)[C@@H](O)[C@H](O)[C@H]6O)CC[C@]5(C)[C@H]4CC[C@]3(C)[C@H]1[C@@H]2C` [Timosaponin AV], for which the IC50 in assay [2] was 21.7 ± 2.27 µM; in assay [3], 17.4 ± 4.29 µM; in assay [4], 21.6 ± 5.2 µM; in assay [5] it was 20 ± 0.71 µM; in assay [1] (setting [8]) it was 4.2 ± 1.2 µM. For the same compound, in assay [6], the “Aβ profile (Aβ42 vs Aβ40 and Aβ38)” value is “preferentially lower Aβ42 production”.
As to `C[C@@H](CC[C@@]1(O)O[C@H]2C[C@H]3[C@@H]4CC[C@@H]5C[C@@H](O[C@@H]6O[C@H](CO)[C@H](O)[C@H](O)[C@H]6O[C@@H]6O[C@H](CO)[C@@H](O)[C@H](O)[C@H]6O)CC[C@]5(C)[C@H]4CC[C@]3(C)[C@H]2[C@@H]1C)CO[C@@H]1O[C@H](CO)[C@@H](O)[C@H](O)[C@H]1O` [Timosaponin BII], the IC50 in assay [2], in assay [3], in assay [4] and in assay [5] was above 100 µM in each case.
On to `CO[C@]1(CC[C@H](C)CO[C@@H]2O[C@H](CO)[C@@H](O)[C@H](O)[C@H]2O)O[C@H]2C[C@H]3[C@@H]4CC[C@@H]5C[C@@H](O[C@@H]6O[C@H](CO)[C@H](O)[C@H](O)[C@H]6O[C@@H]6O[C@H](CO)[C@@H](O)[C@H](O)[C@H]6O)CC[C@]5(C)[C@H]4CC[C@]3(C)[C@H]2[C@@H]1C` [Timosaponin BI], for which the IC50 in assay [2], in assay [3], in assay [4], in assay [5] and in assay [1] (setting [8]) was above 100 µM each time.
As to `C[C@H]1CC[C@@]2(OC1)O[C@H]1C[C@H]3[C@@H]4CC=C5C[C@@H](O)CC[C@]5(C)[C@H]4CC[C@]3(C)[C@H]1[C@@H]2C` [Yamogenin], the IC50 in assay [1] (setting [8]) is above 100 µM.

The record behind these values is patent US12234258B2, “Timosaponin compounds” (priority 2012, dated 2025).
